This is an account of results in the supplement of paper PMC10307832.

Experiment in all cases: relative viability (nuclei count vs DMSO), 5 days (fraction); higher = more cells survive
Compound in test [1]: C[C@H]([C@@H](C(=O)N)NC(=O)[C@@H]1CSSC[C@@H](C(=O)N[C@H](C(=O)N[C@@H](C(=O)N[C@H](C(=O)N1)CCCCN)CC2=CNC3=CC=CC=C32)CC4=CC=C(C=C4)O)NC(=O)[C@@H](CC5=CC=CC=C5)N)O [CAP-232] + CC(=O)c1c(C)c2cnc(Nc3ccc(N4CCNCC4)cn3)nc2n(C2CCCC2)c1=O [Palbociclib] (partner 0.5 µM)
In outline: (§1)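 Each reported value is a median over duplicate plates. It expresses relative viability: treated-well nuclei count divided by vehicle-well nuclei count. Lung cancer cell lines in 1536-well plates were dosed by pin tool a day after seeding, alone with one drug or with a fixed anchor-drug dose plus five library-drug doses (not always all listed) in √10 steps, and nuclei were counted after 5 days.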

Compound in test [2]: C[C@H]([C@@H](C(=O)N)NC(=O)[C@@H]1CSSC[C@@H](C(=O)N[C@H](C(=O)N[C@@H](C(=O)N[C@H](C(=O)N1)CCCCN)CC2=CNC3=CC=CC=C32)CC4=CC=C(C=C4)O)NC(=O)[C@@H](CC5=CC=CC=C5)N)O [CAP-232] + CS(=O)(=O)N1CCN(Cc2cc3nc(-c4cccc5[nH]ncc45)nc(N4CCOCC4)c3s2)CC1 [Pictilisib] (partner 1 µM)
In a few lines:
as §1

Compound in test [3]: C[C@H]([C@@H](C(=O)N)NC(=O)[C@@H]1CSSC[C@@H](C(=O)N[C@H](C(=O)N[C@@H](C(=O)N[C@H](C(=O)N1)CCCCN)CC2=CNC3=CC=CC=C32)CC4=CC=C(C=C4)O)NC(=O)[C@@H](CC5=CC=CC=C5)N)O [CAP-232] + CC(=O)Nc1cccc(-n2c(=O)n(C3CC3)c(=O)c3c(Nc4ccc(I)cc4F)n(C)c(=O)c(C)c32)c1 [Trametinib] (partner 0.02 µM)
In outline:
as §1

Compound in test [4]: C[C@H]([C@@H](C(=O)N)NC(=O)[C@@H]1CSSC[C@@H](C(=O)N[C@H](C(=O)N[C@@H](C(=O)N[C@H](C(=O)N1)CCCCN)CC2=CNC3=CC=CC=C32)CC4=CC=C(C=C4)O)NC(=O)[C@@H](CC5=CC=CC=C5)N)O [CAP-232] + CCNC(=O)c1noc(-c2cc(C(C)C)c(O)cc2O)c1-c1ccc(CN2CCOCC2)cc1 [Luminespib] (partner 0.01 µM)
In a few lines: as §1

Compound in test [5]: C[C@H]([C@@H](C(=O)N)NC(=O)[C@@H]1CSSC[C@@H](C(=O)N[C@H](C(=O)N[C@@H](C(=O)N[C@H](C(=O)N1)CCCCN)CC2=CNC3=CC=CC=C32)CC4=CC=C(C=C4)O)NC(=O)[C@@H](CC5=CC=CC=C5)N)O [CAP-232] + CS(=O)(=O)CCNCc1ccc(-c2ccc3ncnc(Nc4ccc(OCc5cccc(F)c5)c(Cl)c4)c3c2)o1 [Lapatinib] (partner 2 µM)
In outline:
as §1

Consider NCI-H647, for which the relative viability in test [1] (first compound 0.4 µM) is 0.34; in test [1] (first compound 1.265 µM), 0.358; in test [1] (first compound 4 µM), 0.404; in test [1] (first compound 12.65 µM), 0.284; in test [2] (first compound 0.4 µM), 0.431; in test [2] (first compound 1.265 µM), 0.354. Moreover, the relative viability in test [2] (first compound 4 µM) amounted to 0.482; in test [2] (first compound 12.65 µM), 0.365; in test [3] (first compound 0.4 µM), 0.321; in test [3] (first compound 1.265 µM), 0.504; in test [3] (first compound 4 µM), 0.564; in test [3] (first compound 12.65 µM) it was 0.249. For the same cell line, the relative viability in test [4] (first compound 0.4 µM) worked out at 0.12; in test [4] (first compound 1.265 µM), 0.114; in test [4] (first compound 4 µM) it was 0.211; in test [4] (first compound 12.65 µM) it was 0.203; in test [5] (first compound 0.4 µM), 1.07; in test [5] (first compound 1.265 µM), 1.14. Further, the relative viability in test [5] (first compound 4 µM) was found to be 1.39; in test [5] (first compound 12.65 µM), 0.469.

For the cell line NCI-H650, the relative viability in test [1] (first compound 0.4 µM) came to 0.358; in test [1] (first compound 1.265 µM), 0.306; in test [1] (first compound 4 µM), 0.271; in test [1] (first compound 12.65 µM), 0.285; in test [2] (first compound 0.4 µM) it was 0.84; in test [2] (first compound 1.265 µM) it was 0.821. The relative viability stood at 1.06 in test [2] (first compound 4 µM); 0.564 in test [2] (first compound 12.65 µM); 0.821 in test [3] (first compound 0.4 µM); 1.04 in test [3] (first compound 1.265 µM); 0.896 in test [3] (first compound 4 µM); 1.01 in test [3] (first compound 12.65 µM). For the same cell line, the relative viability in test [4] (first compound 0.4 µM) stood at 0.735; in test [4] (first compound 1.265 µM), 0.824; in test [4] (first compound 4 µM) it was 0.674; in test [4] (first compound 12.65 µM), 0.721; in test [5] (first compound 0.4 µM), 1.17; in test [5] (first compound 1.265 µM), 0.879. Further, the relative viability in test [5] (first compound 4 µM) is 0.966; in test [5] (first compound 12.65 µM), 0.958.

Turning to NCI-H661, the relative viability in test [1] (first compound 0.4 µM) came out at 0.415; in test [1] (first compound 1.265 µM), 0.403; in test [1] (first compound 4 µM), 0.433; in test [1] (first compound 12.65 µM), 0.35; in test [2] (first compound 0.4 µM) it was 0.402; in test [2] (first compound 1.265 µM), 0.377. For the same cell line, the relative viability was 0.416 in test [2] (first compound 4 µM); 0.389 in test [2] (first compound 12.65 µM); 0.523 in test [3] (first compound 0.4 µM); 0.536 in test [3] (first compound 1.265 µM); 0.578 in test [3] (first compound 4 µM); 0.377 in test [3] (first compound 12.65 µM). The relative viability in test [4] (first compound 0.4 µM) worked out at 0.954; in test [4] (first compound 1.265 µM), 0.907; in test [4] (first compound 4 µM), 0.883; in test [4] (first compound 12.65 µM), 0.719; in test [5] (first compound 0.4 µM), 0.496; in test [5] (first compound 1.265 µM), 0.592. The relative viability in test [5] (first compound 4 µM) was found to be 0.465; in test [5] (first compound 12.65 µM), 0.344.

Turning to NCI-H727, the relative viability in test [1] (first compound 0.4 µM) came out at 0.528; in test [1] (first compound 1.265 µM), 0.65; in test [1] (first compound 4 µM) it was 0.558; in test [1] (first compound 12.65 µM), 0.701; in test [2] (first compound 1.265 µM), 0.346; in test [2] (first compound 4 µM), 0.361. Besides, the relative viability in test [2] (first compound 12.65 µM) came to 0.28; in test [3] (first compound 0.4 µM) it was 0.383; in test [3] (first compound 1.265 µM), 0.397; in test [3] (first compound 4 µM), 0.442; in test [3] (first compound 12.65 µM) it was 0.415; in test [4] (first compound 0.4 µM), 0.474. For the same cell line, the relative viability in test [4] (first compound 1.265 µM) came out at 0.318; in test [4] (first compound 4 µM), 0.348; in test [4] (first compound 12.65 µM), 0.386; in test [5] (first compound 1.265 µM), 0.792; in test [5] (first compound 4 µM), 0.826; in test [5] (first compound 12.65 µM), 0.719.

As for NCI-H838, the relative viability in test [1] (first compound 0.4 µM) is 0.228; in test [1] (first compound 1.265 µM), 0.205; in test [1] (first compound 4 µM), 0.237; in test [1] (first compound 12.65 µM), 0.212; in test [2] (first compound 0.4 µM) it was 0.439; in test [2] (first compound 1.265 µM) it was 0.357. The relative viability worked out at 0.475 in test [2] (first compound 4 µM); 0.345 in test [2] (first compound 12.65 µM); 0.59 in test [3] (first compound 0.4 µM); 0.555 in test [3] (first compound 1.265 µM); 0.626 in test [3] (first compound 4 µM); 0.39 in test [3] (first compound 12.65 µM). The relative viability in test [4] (first compound 0.4 µM) was found to be 0.321; in test [4] (first compound 1.265 µM), 0.266; in test [4] (first compound 4 µM), 0.349; in test [4] (first compound 12.65 µM) it was 0.246; in test [5] (first compound 0.4 µM), 0.976; in test [5] (first compound 1.265 µM) it was 0.974. Further, the relative viability is 1.14 in test [5] (first compound 4 µM) and 0.499 in test [5] (first compound 12.65 µM).

Turning to NCI-H1355, the relative viability came out at 0.42 in test [1] (first compound 0.4 µM); 0.413 in test [1] (first compound 1.265 µM); 0.432 in test [1] (first compound 4 µM); 0.343 in test [1] (first compound 12.65 µM); 0.365 in test [2] (first compound 0.4 µM); 0.464 in test [2] (first compound 1.265 µM). The relative viability stood at 0.497 in test [2] (first compound 4 µM); 0.521 in test [2] (first compound 12.65 µM); 0.437 in test [3] (first compound 0.4 µM); 0.434 in test [3] (first compound 1.265 µM); 0.456 in test [3] (first compound 4 µM); 0.342 in test [3] (first compound 12.65 µM). Besides, the relative viability in test [4] (first compound 0.4 µM) was found to be 0.81; in test [4] (first compound 1.265 µM) it was 0.808; in test [4] (first compound 4 µM), 0.578; in test [4] (first compound 12.65 µM), 0.683; in test [5] (first compound 0.4 µM), 1.11; in test [5] (first compound 1.265 µM) it was 1.06. Besides, the relative viability was 1.19 in test [5] (first compound 4 µM) and 1.01 in test [5] (first compound 12.65 µM).

Turning to NCI-H1395, the relative viability in test [1] (first compound 0.4 µM) turned out to be 0.679; in test [1] (first compound 4 µM), 0.665; in test [1] (first compound 12.65 µM) it was 0.578; in test [2] (first compound 0.4 µM), 0.593; in test [2] (first compound 1.265 µM), 0.433; in test [2] (first compound 4 µM), 0.602. Besides, the relative viability in test [2] (first compound 12.65 µM) worked out at 0.576; in test [3] (first compound 0.4 µM), 1.17; in test [3] (first compound 4 µM), 1.06; in test [3] (first compound 12.65 µM), 1.1; in test [4] (first compound 0.4 µM) it was 0.661; in test [4] (first compound 1.265 µM), 0.638. Besides, the relative viability was 0.665 in test [4] (first compound 4 µM); 0.614 in test [4] (first compound 12.65 µM); 1.01 in test [5] (first compound 0.4 µM); 0.933 in test [5] (first compound 1.265 µM); 1.09 in test [5] (first compound 4 µM); 0.911 in test [5] (first compound 12.65 µM).
